Measurements taken from patent US12281138B2, “5′-cap-trinucleotide- or higher oligonucleotide compounds and their use in stabilizing RNA, expressing proteins in therapy” (BioNTech RNA Pharmaceuticals GmbH, priority 2018, dated 2025).

Experiments:
Balb/c mice = assay: Luciferase mRNA expression in vivo, bioluminescence imaging after intravenous application; settings: 10 μg RNA per mouse, i.v.
[1] = test system: human immature dendritic cells (hiDCs); assay: Luciferase reporter mRNA translation in human immature dendritic cells; type: cell-based; settings: co-transcriptionally capped Luciferase mRNA, 700 ng per well, liposome formulated, recorded over 72 h
Method: As a functional assay of cap analog incorporation, and as a test of translatability of the resulting cap structure, differently capped mRNA encoding a Luciferase reporter was transfected into human immature dendritic cells (hiDCs). For that, 700 ng capped RNA per well were formulated with liposomes as described in Kranz et al., Nature 534, 396-401 (2016), and added to a 96-well containing 5E04 hiDCs. Subsequently, reporter activity was recorded over 72 h.

| Substance | in vivo luciferase protein levels compared to all cap0 RNAs (Balb/c mice; all time points) | in vivo luciferase protein levels compared to enzymatically capped cap1 mRNA (Balb/c mice; at the other time points) | translation in hiDCs (luciferase reporter activity) relative to mRNA capped with the corresponding D1 or D2 diastereomer of beta-S-ARCA [1] |
| --- | --- | --- | --- |
| m2^7,2′-OGppSpm^2′-OGpG [Compound 1] | always higher levels | only slightly lower levels |  |
| m2^7,2′-OGppSpm^2′-OGpG [Compound 1 (D1)] |  |  | comparable levels |
